Entries after “also recorded” stand apart in the source; their conditions may differ.
Legend:
[1] = tested on: neutrophil emigration into the cremaster tissue; assay: Intravital microscopy of cremaster muscle after intrascrotal injection; assay type: in vivo, mice; conditions: for effect of antagonist pretreatment on LTA and GML inhibition of TNFα-induced neutrophil recruitment: 0.5 μg, 1.5 hr pre-treatment; for inhibitory properties toward LPS-induced neutrophil emigration: LPS 10 ng/g plus ligand 5 ng/g, 4.5 hours; for neutrophil recruitment induced by the ligand itself: wild-type mice, intrascrotal injection, 4.5 hr
Description: Intravital microscopy was performed on male mice, anaesthetized with an intraperitoneal injection of a 10 mg/kg xylazine (Bayer) and 200 mg/kg ketamine hydrochloride (Rogar/STB). The left jugular vein was cannulated to administer additional anaesthetic when necessary. An incision in the scrotal skin exposed the left cremaster muscle, which was then carefully dissected free of the associated fascia. The cremaster muscle was cut longitudinally with a cautery pen. The testicle and the epididymis were then separated from the underlying muscle and were moved into the abdominal cavity. The muscle was held flat on an optically clear viewing pedestal and was secured along the edges with 4-0 suture. The exposed tissue was superfused with 37° C.-warmed bicarbonate-buffered saline (pH 7.4). An upright microscope (Mikron; Carl Zeiss) was used to examine the cremasteric microcirculation and a video camera (XR/MEGA10-AM or XR/MEGA10 Panasonic) and DVD recorder were used to capture images. Three to five cremasteric venules (25 to 40 μm in diameter) were analysed during playback analysis. A leukocyte was considered to be adherent if it remained stationary for at least 30 seconds, and total leukocyte adhesion was quantified as the number of adherent cells within a 100-μm length of venule. Leukocyte emigration was defined as the number of cells in the extravascular space within the field of view adjacent to the observed venule.

[2] = tested on: MIP2-induced neutrophil emigration; assay: Intravital microscopy of exteriorized cremaster superfused with MIP2; assay type: in vivo, mice; conditions: 0.5 μg, 1.5 hr pre-treatment; superfusion 60 min
Description: Intravital microscopy was performed on male mice, anaesthetized with an intraperitoneal injection of a 10 mg/kg xylazine (Bayer) and 200 mg/kg ketamine hydrochloride (Rogar/STB). The left jugular vein was cannulated to administer additional anaesthetic when necessary. An incision in the scrotal skin exposed the left cremaster muscle, which was then carefully dissected free of the associated fascia. The cremaster muscle was cut longitudinally with a cautery pen. The testicle and the epididymis were then separated from the underlying muscle and were moved into the abdominal cavity. The muscle was held flat on an optically clear viewing pedestal and was secured along the edges with 4-0 suture. The exposed tissue was superfused with 37° C.-warmed bicarbonate-buffered saline (pH 7.4). An upright microscope (Mikron; Carl Zeiss) was used to examine the cremasteric microcirculation and a video camera (XR/MEGA10-AM or XR/MEGA10 Panasonic) and DVD recorder were used to capture images. Three to five cremasteric venules (25 to 40 μm in diameter) were analysed during playback analysis. A leukocyte was considered to be adherent if it remained stationary for at least 30 seconds, and total leukocyte adhesion was quantified as the number of adherent cells within a 100-μm length of venule. […]

[3] = tested on: bone marrow-derived macrophages; assay: Internalization of FITC-FSL1/GML; assay type: cell-based, mice
Description: Bone marrow-derived macrophages were isolated from wild-type and TLR2−/− mice and cultured on glass coverslips. The cells were incubated on ice for 10 min in the presence of 10 μg/mL FITC-FSL1 or FITC-GML to allow ligands binding and then returned to 37° C. for 60 min. Cells were then fixed for 10 minutes in 4.5% paraformaldehyde and stained for the golgi marker Giantin (1:250, Abcam), and imaged using confocal microscopy.

[4] = severe sepsis; decreased from about 31%; cited from earlier work

Molecule	effect of antagonist pretreatment on LTA and GML inhibition of TNFα-induced neutrophil recruitment [1]	effect of antagonist pretreatment on LTA and GML inhibition of MIP2-induced neutrophil recruitment [2]	inhibitory properties toward LPS-induced neutrophil emigration [1]	neutrophil recruitment induced by the ligand itself [1]	further results
O=C(Nc1ccccc1)c1cc([N+](=O)[O-])ccc1Cl [GW9662]	abrogated the inhibitory effect of both LTA and GML	abrogated the inhibitory effect of both LTA and GML			
O=C(Nc1ccncc1)c1cc([N+](=O)[O-])ccc1Cl [T0070907]	abrogated the inhibitory effect of both LTA and GML	abrogated the inhibitory effect of both LTA and GML			
FSL1					internalization / localization of FITC-labelled ligand ([3]; in the absence of TLR2): substantially inhibited with regard to internalization; localization of internalized FITC-labelled ligand ([3]; wild-type macrophages, 60 min, Giantin stain): much smaller vesicles, which did not co-localize with Giantin
Pam2CSK4			did not exhibit any inhibitory properties	pro-inflammatory	
Pam3CSK4			did not exhibit any inhibitory properties	pro-inflammatory; also recorded: causes significant neutrophil recruitment into the cremaster tissue	
drotrecogin alfa					mortality [4]: about 25%

Reference: US9422335B2, “Modified toll-like receptor 2 (TLR2) ligands as inhibitors of neutrophil recruitment” (priority 2011, dated 2016)
